The NIST ThermoML archive (doi:10.1016/j.jct.2012.07.022)

Legend:
[1] = Liquid; for electrical conductivity: Alternating current cell with electrodes; for viscosity: Capillary tube (Ostwald / Ubbelohde) method; for mass density: Vibrating tube method; for speed of sound: Linear variable-path acoustic interferometer
[2] = refractive index (Na D-line) (dimensionless); conditions: 101.33 kPa, Liquid, Standard Abbe refractometry

Nc1[nH]cnc2ncnc1-2 [6-amino-1H-purine]
[1], 101 kPa
Conditions | electrical conductivity [S/m] | mass density [kg/m3] | viscosity [mPa·s]
298.15 K | 0.296 | 1097.6 | 128.5
303.15 K | 0.382 | 1094.5 | 95.23
308.15 K | 0.48 | 1091.4 | 72.42
313.15 K | 0.594 | 1088.4 | 56.38
318.15 K | 0.827 | 1085.3 | 44.79
323.15 K | 0.986 | 1082.3 | 36.23
328.15 K | – | 1079.3 | 29.78
333.15 K | – | 1076.2 | 24.82
338.15 K | – | 1073.3 | 20.95
343.15 K | – | 1070.3 | 17.88

CC(=O)[O-].CCn1cc[n+](C)c1 [1-ethyl-3-methylimidazolium acetate]
[2]
Conditions | refractive index
283.15 K | 1.50423
288.15 K | 1.50283
293.15 K | 1.50144
298.15 K | 1.50001
303.15 K | 1.49861
308.15 K | 1.49718
313.15 K | 1.49577
318.15 K | 1.49436
323.15 K | 1.49295
328.15 K | 1.49154
333.15 K | 1.49015
338.15 K | 1.48876
343.15 K | 1.48734

[1], 101.33 kPa
Conditions | electrical conductivity [S/m] | mass density [kg/m3] | speed of sound [m/s] | viscosity [mPa·s]
283.15 K | 0.114 | 1107.56 | 1778 | 388.6
288.15 K | 0.162 | 1104.47 | 1764 | 258.4
293.15 K | 0.222 | 1101.36 | 1750 | 179.1
298.15 K | 0.296 | 1098.26 | 1737 | 128.5
303.15 K | 0.382 | 1095.16 | 1725 | 95.23
308.15 K | 0.48 | 1092.07 | 1712 | 72.42
313.15 K | 0.594 | 1089 | 1700 | 56.38
318.15 K | 0.827 | 1085.94 | 1687 | 44.79
323.15 K | 0.986 | 1082.9 | 1675 | 36.23
328.15 K | – | 1079.87 | 1664 | 29.78
333.15 K | – | 1076.84 | 1652 | 24.82
338.15 K | – | 1073.83 | 1640 | 20.95
343.15 K | – | 1070.83 | 1628 | 17.88
